# According to US20090264433A1, “Compounds, Compositions and Methods Comprising Triazine Derivatives” (Institute for OneWorld Health, priority 2008, published 2009):
# Where a name gives a salt, the structure may show the parent alone.
# Biological target: T1, CFTR channel in human colonic T84 cells (Homo sapiens, UniProt P13569)
# T1 construct: results in the phosphorylation and opening of CFTR anion channels; host or cells: human colonic T84 cells
# Assay: T84 assay (FLIPR membrane potential dye, forskolin/IBMX-stimulated CFTR)
# Assay type: cell-based
# Conditions: average of at least 2 runs unless annotated n = 1
# Protocol: (§1) For example, Human colonic T84 cells can be acquired from the European Collection of Cell Cultures (ECACC) and grown in standard culture conditions as described by the supplier. On the day before assay 25,000 T84 cells per well are plated into standard black walled, clear bottom 384-well assay plates in standard growth medium consisting of DMEM:F12 with 10% FBS and incubated overnight. On the day of the assay the plates are washed using a standard assay buffer (HBSS with 10 mM Hepes) and incubated for 15 minutes in serum free cell culture medium before the addition of a commercially available membrane potential sensitive fluorescent dye (FLIPR Red membrane potential dye, Molecular Devices Corporation). T84 cells are incubated with the FLIPR Red membrane potential dye for 45 minutes in the presence and absence of test compound before being transferred to a commercially available fluorescence imaging plate reader (FLIPR384, Molecular Devices Corporation). Fluorescence levels are monitored continuously every second for 150 seconds; after an initial 10 second baseline, CFTR channel activity is stimulated through the addition of 10 μM forskolin in the presence of 100 μM of the phosphodiesterase inhibitor iso-butyl-methylxanthine (IBMX). Addition of the forskolin leads to the activation of intracellular adenylyl cylase 1, elevating cAMP levels and results in the phosphorylation and opening of CFTR anion channels. CFTR channel opening causes chloride ion efflux and subsequent depolarization of the cells, which is measured by an increase in fluorescence. CFTR inhibitor compounds prevent cell depolarization and the associated increase in fluorescence.
# as §1, with “Human colonic” for “For example, Human colonic”, “T84 cells are acquired from” for “T84 cells can be acquired from”, “(ECACC) and are grown in” for “(ECACC) and grown in”
# T1 sequence (P13569 whole entry): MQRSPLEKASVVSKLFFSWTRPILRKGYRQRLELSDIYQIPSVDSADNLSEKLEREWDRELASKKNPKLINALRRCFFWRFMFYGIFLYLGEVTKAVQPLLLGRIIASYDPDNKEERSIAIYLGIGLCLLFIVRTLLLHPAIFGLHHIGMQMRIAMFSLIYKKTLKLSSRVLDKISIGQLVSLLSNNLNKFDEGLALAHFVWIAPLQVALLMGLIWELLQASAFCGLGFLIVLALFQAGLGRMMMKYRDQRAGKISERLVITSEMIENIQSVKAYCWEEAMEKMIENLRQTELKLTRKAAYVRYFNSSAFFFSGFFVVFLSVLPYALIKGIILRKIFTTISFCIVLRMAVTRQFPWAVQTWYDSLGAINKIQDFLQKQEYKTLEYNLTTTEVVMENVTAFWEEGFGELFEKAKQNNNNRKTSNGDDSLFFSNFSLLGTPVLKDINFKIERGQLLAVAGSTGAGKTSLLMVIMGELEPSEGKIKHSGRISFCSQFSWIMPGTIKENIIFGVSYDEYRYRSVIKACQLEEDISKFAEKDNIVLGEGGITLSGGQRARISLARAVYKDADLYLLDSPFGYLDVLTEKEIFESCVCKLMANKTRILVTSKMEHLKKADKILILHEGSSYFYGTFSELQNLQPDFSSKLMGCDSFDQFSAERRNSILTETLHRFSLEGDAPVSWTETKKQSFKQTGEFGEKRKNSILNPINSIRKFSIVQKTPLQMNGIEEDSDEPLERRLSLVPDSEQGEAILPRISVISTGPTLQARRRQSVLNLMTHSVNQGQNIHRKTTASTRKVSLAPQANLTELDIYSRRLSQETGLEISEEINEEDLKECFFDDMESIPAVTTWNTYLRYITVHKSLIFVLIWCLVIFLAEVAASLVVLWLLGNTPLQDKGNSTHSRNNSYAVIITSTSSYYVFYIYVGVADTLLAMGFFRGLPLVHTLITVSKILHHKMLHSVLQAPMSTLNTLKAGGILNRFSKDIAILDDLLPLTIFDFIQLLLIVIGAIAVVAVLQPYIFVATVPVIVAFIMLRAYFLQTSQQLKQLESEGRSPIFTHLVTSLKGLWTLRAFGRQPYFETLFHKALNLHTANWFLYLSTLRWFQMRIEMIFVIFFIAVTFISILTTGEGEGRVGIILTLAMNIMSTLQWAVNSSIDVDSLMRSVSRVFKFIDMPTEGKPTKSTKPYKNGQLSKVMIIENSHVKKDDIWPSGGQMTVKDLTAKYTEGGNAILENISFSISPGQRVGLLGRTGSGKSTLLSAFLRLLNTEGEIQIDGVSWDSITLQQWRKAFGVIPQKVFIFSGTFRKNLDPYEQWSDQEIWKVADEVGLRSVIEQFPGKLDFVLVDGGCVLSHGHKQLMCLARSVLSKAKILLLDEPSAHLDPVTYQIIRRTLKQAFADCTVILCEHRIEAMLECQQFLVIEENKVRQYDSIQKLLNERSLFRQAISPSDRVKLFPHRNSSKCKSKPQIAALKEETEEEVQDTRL
row,SMILES,IC50
1,"CN(C)c1cccc(COc2ncc(-c3cc(Br)c(O)c(Br)c3)nn2)c1 [Compound 17, 2,6-dibromo-4-(3-(3-(dimethylamino)benzyloxy)-1,2,4-triazin-6-yl)phenol]",1.17 µM
2,"CCN(CC)CC(NCc1ccc(COc2ncc(-c3cc(Cl)c(O)c(Cl)c3)nn2)cc1)c1ccccc1 (centres unmarked) [Compound 190, 2,6-dichloro-4-(3-(4-((2-(diethylamino)-1-phenylethylamino)methyl)benzyloxy)-1,2,4-triazin-6-yl)phenol]",21 µM
3,"CN(Cc1ccc(COc2ncc(-c3cc(Cl)c(O)c(Cl)c3)nn2)cc1)CC(O)c1ccccc1 (centres unmarked) [Compound 161, 2,6-dichloro-4-(3-(4-(((2-hydroxy-2-phenylethyl)(methyl)amino)methyl)benzyloxy)-1,2,4-triazin-6-phenol, formate salt]",18.3 µM
4,"CN(Cc1ccc(COc2ncc(-c3cc(Cl)c(O)c(Cl)c3)nn2)cc1)Cc1ccc(F)c(F)c1 [Compound 184, 2,6-dichloro-4-(3-(4-(((3,4-difluorobenzyl)(methyl)amino)methyl)benzyloxy)-1,2,4-triazin-6-yl)phenol]",4.94 µM
5,"Oc1c(Br)cc(-c2cnc(OCc3cccc(Oc4ccccc4)c3)nn2)cc1Br [Compound 27, 2,6-dibromo-4-(3-(3-phenoxybenzyloxy)-1,2,4-triazin-6-yl)phenol]",0.56 µM
6,"OCCN(Cc1ccc(COc2ncc(-c3cc(Cl)c(O)c(Cl)c3)nn2)cc1)Cc1cccc(Cl)c1Cl [Compound 215, 2,6-dichloro-4-(3-(4-(((2,3-dichlorobenzyl)(2-hydroxyethyl)amino)methyl)benzyloxy)-1,2,4-triazin-6-yl)phenol]",4.54 µM
7,"CN(Cc1ccc(COc2ncc(-c3cc(Cl)c(O)c(Cl)c3)nn2)cc1)Cc1cncc(Br)c1 [Compound 170, 4-(3-(4-((((5-bromopyridin-3-yl)methyl)(methyl)amino)methyl)benzyloxy)-1,2,4-triazin-6-yl)-2,6-dichlorophenol]",2.81 µM
8,"Cc1ccc(C)c(OCc2ncc(-c3cc(Br)c(O)c(Br)c3)nn2)c1 [Compound 52, 2,6-dibromo-4-(3-((2,5-dimethylphenoxy)methyl)-1,2,4-triazin-6-yl)phenol]",19.8 µM
9,"Oc1c(Br)cc(-c2cnc(COc3ccc(-c4ccccc4)cc3)nn2)cc1Br [Compound 55, 4-(3-((biphenyl-4-yloxy)methyl)-1,2,4-triazin-6-yl)-2,6-dibromophenol]",22.9 µM
10,"Oc1c(Cl)cc(-c2cnc(OCc3ccc(F)cc3F)nn2)cc1Cl [Compound 148, 2,6-dichloro-4-(3-(2,4-difluorobenzyloxy)-1,2,4-triazin-6-yl)phenol]",3.97 µM
11,"CN1CCN(c2ccc(CNc3ncc(-c4cc(Cl)c(O)c(Cl)c4)nn3)cc2)CC1 [Compound 137, 2,6-dichloro-4-(3-(4-(4-methylpiperazin-1-yl)benzylamino)-1,2,4-triazin-6-yl)phenol, formate salt]",21.3 µM
12,"CCN(Cc1ccccc1)Cc1ccc(COc2ncc(-c3cc(Cl)c(O)c(Cl)c3)nn2)cc1 [Compound 192, 4-(3-(4-((benzyl(ethyl)amino)methyl)benzyloxy)-1,2,4-triazin-6-yl)-2,6-dichlorophenol]",2.13 µM
13,"Oc1c(Br)cc(-c2cnc(OCCc3ccc(Br)cc3)nn2)cc1Br [Compound 2, 2,6-dibromo-4-(3-(4-bromophenethoxy)-1,2,4-triazin-6-yl)phenol]",0.32 µM
14,"CN(Cc1ccc(F)cc1)Cc1ccc(COc2ncc(-c3cc(Cl)c(O)c(Cl)c3)nn2)cc1 [Compound 165, 2,6-dichloro-4-(3-(4-(((4-fluorobenzyl)(methyl)amino)methyl)benzyloxy)-1,2,4-triazin-6-yl)phenol]",2.46 µM
15,"Oc1c(Br)cc(-c2cnc(COc3ccc(C4SCCS4)cc3)nn2)cc1Br [Compound 51, 4-(3-((4-(1,3-dithiolan-2-yl)phenoxy)methyl)-1,2,4-triazin-6-yl)-2,6-dibromophenol]",18.8 µM
16,"Oc1c(Cl)cc(-c2cnc(OCc3ccc(CN4CCN(Cc5cccnc5)CC4)cc3)nn2)cc1Cl [Compound 158, 2,6-dichloro-4-(3-(4-((4-(pyridin-3-ylmethyl)piperazin-1-yl)methyl)benzyloxy)-1,2,4-triazin-6-yl)phenol]",14.2 µM

row,SMILES,IC50
1,"CC(C)(C)OC(=O)N1CCC(COc2ncc(-c3cc(Cl)c(O)c(Cl)c3)nn2)(c2ccccc2)CC1 [Compound 139, tert-butyl 4-((6-(3,5-dichloro-4-hydroxyphenyl)-1,2,4-triazin-3-yloxy)methyl)-4-phenylpiperidine-1-carboxylate]",3.04 µM
2,"Cc1csc(CC(=O)N2CCN(Cc3ccc(COc4ncc(-c5cc(Cl)c(O)c(Cl)c5)nn4)cc3)CC2)n1 [Compound 225, 1-(4-(4-((6-(3,5-dichloro-4-hydroxyphenyl)-1,2,4-triazin-3-yloxy)methyl)benzyl)piperazin-1-yl)-2-(4-methylthiazol-2-yl)ethanone]",11.1 µM
3,"CN(Cc1ccc(COc2ncc(-c3cc(Cl)c(O)c(Cl)c3)nn2)cc1)Cc1cccc(Cl)c1Cl [Compound 183, 2,6-dichloro-4-(3-(4-(((2,3-dichlorobenzyl)(methyl)amino)methyl)benzyloxy)-1,2,4-triazin-6-yl)phenol]",14.6 µM
4,"Oc1c(Br)cc(-c2cnc(OCc3c(Cl)cc(Cl)cc3Cl)nn2)cc1Br [Compound 22, 2,6-dibromo-4-(3-(2,4,6-trichlorobenzyloxy)-1,2,4-triazin-6-yl)phenol]",2.33 µM
5,"CN(Cc1ccc(COc2ncc(-c3cc(Cl)c(O)c(Cl)c3)nn2)cc1)Cc1cccc2ccccc12 [Compound 181, 2,6-dichloro-4-(3-(4-((methyl(naphthalen-1-ylmethyl)amino)methyl)benzyl-oxy)-1,2,4-triazin-6-yl)phenol]",9.15 µM
6,"Oc1c(Br)cc(-c2cnc(OCc3ccc(F)cc3Cl)nn2)cc1Br [Compound 9, 2,6-dibromo-4-(3-(2-chloro-4-fluorobenzyloxy)-1,2,4-triazin-6-yl)phenol]",0.77 µM
7,"Cc1cncc(Oc2ccc(CN(C)Cc3ccc(COc4ncc(-c5cc(Cl)c(O)c(Cl)c5)nn4)cc3)cc2)n1 [Compound 209, 2,6-dichloro-4-(3-(4-((methyl(4-(6-methylpyrazin-2-yloxy)benzyl)amino)methyl)benzyloxy)-1,2,4-triazin-6-yl)phenol]",4.8 µM
8,"Oc1c(Cl)cc(-c2cnc(OCc3ccc(CN4Cc5ccccc5C4)cc3)nn2)cc1Cl [Compound 162, 2,6-dichloro-4-(3-(4-(isoindolin-2-ylmethyl)benzyloxy)-1,2,4-triazin-6-yl)phenol]",2.96 µM
9,"Oc1c(Cl)cc(-c2cnc(OCc3ccc(CN4CCN(c5ccc(Cl)cc5Cl)CC4)cc3)nn2)cc1Cl [Compound 150, 2,6-dichloro-4-(3-(4-((4-(2,4-dichlorophenyl)piperazin-1-yl)methyl)benzyloxy)-1,2,4-triazin-6-yl)phenol]",2.01 µM
10,"Oc1c(Br)cc(-c2cnc(OCc3ccc4ccccc4c3)nn2)cc1Br [Compound 8, 2,6-dibromo-4-(3-(naphthalen-2-ylmethoxy)-1,2,4-triazin-6-yl)phenol]",0.72 µM
11,"Oc1c(Br)cc(-c2cnc(OCc3ccc(OC(F)(F)F)cc3)nn2)cc1Br [Compound 28, 2,6-dibromo-4-(3-(4-(trifluoromethoxy)benzyloxy)-1,2,4-triazin-6-yl)phenol]",15.5 µM
12,"Oc1c(Br)cc(-c2cnc(OC(c3cccc(C(F)(F)F)c3)c3cccc(C(F)(F)F)c3)nn2)cc1Br [Compound 109, 4-(3-(bis(3-(trifluoromethyl)phenyl)methoxy)-1,2,4-triazin-6-yl)-2,6-dibromophenol]",12.2 µM
13,"Oc1c(Cl)cc(-c2cnc(OCc3ccc(Cl)cc3)nn2)cc1Cl [Compound 113, 2,6-dichloro-4-(3-(4-chlorobenzyloxy)-1,2,4-triazin-6-yl)phenol]",1.3 µM
14,"O=S1(=O)CCN(Cc2ccc(COc3ncc(-c4cc(Cl)c(O)c(Cl)c4)nn3)cc2)CC1 [Compound 136, formate salt]",18.3 µM
15,"Oc1c(Br)cc(-c2cnc(OCc3ccc(Cl)cc3)nn2)cc1Br [Compound 20, 2,6-dibromo-4-(3-(4-chlorobenzyloxy)-1,2,4-triazin-6-yl)phenol]",0.85 µM
16,"Oc1c(Cl)cc(-c2cnc(OCCc3ccc(Br)cc3)nn2)cc1Cl [Compound 117, 4-(3-(4-bromophenethoxy)-1,2,4-triazin-6-yl)-2,6-dichlorophenol]",0.61 µM
